The values below come from ChEMBL document CHEMBL4725304, “Synthesis and evaluations of selective COX-2 inhibitory effects: Benzo[d]thiazol analogs” (Bioorg Med Chem Lett, 2020).

Assay [1] deals with Mus musculus. The experiment in a line: Antiinflammatory activity in mouse assessed as xylene-induced ear edema at 100 mg/kg, ip administered prior to xylene stimulation and measured after 1 hr (reference value: 2.05 +/- 0.40 mg). It is filed as functional.
In assay [2] the target is Prostaglandin G/H synthase 1 (Homo sapiens, UniProt P23219). The assay is described as follows: Inhibition of COX1 (unknown origin). The class given is single protein.
The species entered for another assay is Homo sapiens. The experiment in a line: Selectivity index, ratio of IC50 for COX1 (unknown origin) to IC50 for COX2 (unknown origin).
Assay [3] deals with Mus musculus. The assay is described as follows: Analgesic activity in mouse assessed as reduction in acetic acid-induced abdominal writhing at 100 mg/kg, ip relative to control. It is filed as functional. (In general: In writhing tests, fewer writhes than in controls are read as antinociception.)
For assay [4], the target named is T1, Prostaglandin G/H synthase 2 (Homo sapiens, UniProt P35354).
T1 sequence (P35354 whole entry): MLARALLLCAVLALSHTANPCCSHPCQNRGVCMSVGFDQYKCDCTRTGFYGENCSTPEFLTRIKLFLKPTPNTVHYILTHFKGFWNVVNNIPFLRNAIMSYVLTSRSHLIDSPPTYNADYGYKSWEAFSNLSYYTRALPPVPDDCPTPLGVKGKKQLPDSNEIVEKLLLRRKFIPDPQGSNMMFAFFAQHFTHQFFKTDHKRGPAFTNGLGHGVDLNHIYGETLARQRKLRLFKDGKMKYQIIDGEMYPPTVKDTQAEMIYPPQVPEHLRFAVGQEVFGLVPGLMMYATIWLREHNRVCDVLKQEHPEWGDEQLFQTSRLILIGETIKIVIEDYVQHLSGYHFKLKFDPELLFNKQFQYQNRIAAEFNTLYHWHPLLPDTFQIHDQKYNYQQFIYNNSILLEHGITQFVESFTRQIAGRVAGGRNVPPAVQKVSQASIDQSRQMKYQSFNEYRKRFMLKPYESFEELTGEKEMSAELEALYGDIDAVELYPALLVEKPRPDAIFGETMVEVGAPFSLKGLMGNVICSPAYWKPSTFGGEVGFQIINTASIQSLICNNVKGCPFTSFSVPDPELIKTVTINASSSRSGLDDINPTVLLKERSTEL
The assay is described as follows: Inhibition of COX2 (unknown origin).

Assay [5] deals with Mus musculus. The experiment in a line: Antiinflammatory activity in mouse assessed as reduction in xylene-induced ear edema at 100 mg/kg, ip administered after prior to xylene stimulation and measured after 1 hr relative to control. The class given is functional.
In a further assay the test system is Rattus norvegicus. The experiment in a line: Antiinflammatory activity against carrageenan-induced paw edema in rat assessed as inhibition of paw edema at 100 mg/kg, ip administered at 1 hr prior to carrageenan challenge and measured after 4 hrs by electronic-onkographic analysis. The class given is functional. Particulars: time 5 hrs. A general note: Carrageenan injected into the paw causes an acute inflammation.

pIC50: −log10 of the molar value. Activity calls are given as the source filed them. The rule behind the calls is not given here.

Prostaglandin G/H synthase 1, sequence (P23219 whole entry): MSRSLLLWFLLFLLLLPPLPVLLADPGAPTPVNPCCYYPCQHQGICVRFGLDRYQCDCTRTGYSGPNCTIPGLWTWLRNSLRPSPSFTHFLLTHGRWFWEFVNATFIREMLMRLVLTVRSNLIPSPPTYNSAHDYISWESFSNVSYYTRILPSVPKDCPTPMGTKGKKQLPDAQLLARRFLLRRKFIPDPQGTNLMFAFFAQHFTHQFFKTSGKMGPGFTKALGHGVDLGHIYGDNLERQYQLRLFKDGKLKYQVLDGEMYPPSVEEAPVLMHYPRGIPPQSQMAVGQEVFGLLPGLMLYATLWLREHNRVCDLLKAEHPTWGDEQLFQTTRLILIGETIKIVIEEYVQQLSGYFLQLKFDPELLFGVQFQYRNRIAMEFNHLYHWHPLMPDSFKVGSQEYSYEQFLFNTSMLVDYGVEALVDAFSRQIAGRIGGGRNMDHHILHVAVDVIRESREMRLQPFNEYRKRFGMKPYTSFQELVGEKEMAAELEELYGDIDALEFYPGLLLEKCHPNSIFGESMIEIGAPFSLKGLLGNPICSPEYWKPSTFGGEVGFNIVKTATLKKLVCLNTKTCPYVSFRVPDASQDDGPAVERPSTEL

On to `Fc1cccc(COc2nc3ccccc3s2)c1`, for which the Activity in the assay with Mus musculus [1] is on record as 0.27 mg. Moreover, the pIC50 – broadly, the negative decadic logarithm of the IC50, by convention in mol/L – is 5.28 in assay [2] and 6.55 in assay [4]. Further, the Ratio IC50 in the assay filed under Homo sapiens is 18.6. In addition, the inhibition in vivo (in general, the change of the read-out against control, counted positive when it falls) at 100 mg/kg with Mus musculus [3] is 51.9%; with Mus musculus [5], 86.8%.
Take `Cc1ccc(COc2nc3ccccc3s2)cc1`: in the assay with Mus musculus [1], the Activity worked out at 2.01 mg. In addition, the inhibition result in the assay on Mus musculus [3] was “inactive”. The inhibition in vivo at 100 mg/kg in the assay with Mus musculus [5] was 1.95%.
On to `Fc1ccccc1COc1nc2ccccc2s1`, for which the Activity with Mus musculus [1] came to 0.52 mg. Moreover, the results for the inhibition in vivo at 100 mg/kg in the assay on Mus musculus [3] and in the assay with Mus musculus [5] were 51.9% and 74.6%, respectively.
For `Clc1ccc(COc2nc3ccccc3s2)cc1`, in the assay on Mus musculus [1], the Activity is given as 0.35 mg. The negative logarithm of the IC50 (pIC50) is 5.26 in assay [2] and 6.11 in assay [4]. Besides, the Ratio IC50 in the assay listed under Homo sapiens came out at 7.2. Also, the inhibition in vivo at 100 mg/kg turned out to be 51.9% in the assay on Mus musculus [3] and 82.9% with Mus musculus [5].
As to `Fc1ccc(OCCOc2nc3ccccc3s2)c(F)c1`, the Activity with Mus musculus [1] was found to be 0.9 mg. In addition, the inhibition in vivo at 100 mg/kg stood at 68.6% in the assay on Mus musculus [3] and 56.1% in the assay with Mus musculus [5].
For `FC(F)(F)c1ccccc1COc1nc2ccccc2s1`, the Activity in the assay on Mus musculus [1] was 2.03 mg. Moreover, the inhibition result in the assay with Mus musculus [3] is “inactive”. The inhibition in vivo at 100 mg/kg in the assay on Mus musculus [5] was 9.75%.
On to `Brc1ccc(OCCOc2nc3ccccc3s2)cc1`, for which, in the assay on Mus musculus [1], the Activity amounted to 0.11 mg. In addition, the values for the pIC50 in assay [2] and in assay [4] were 5.27 and 6.30, respectively. In addition, the Ratio IC50 in the assay listed under Homo sapiens is 10.6. For the same molecule, the inhibition in vivo at 100 mg/kg was 68.6% in the assay with Mus musculus [3] and 94.6% in the assay on Mus musculus [5].
With `c1ccc(OCCOc2nc3ccccc3s2)cc1`, in the assay on Mus musculus [1], the Activity is recorded as 1.9 mg. The inhibition result in the assay on Mus musculus [3] is “inactive”. In the assay on Mus musculus [5], the inhibition in vivo at 100 mg/kg came out at 7.31%.
Take `FC(F)(F)c1ccc(COc2nc3ccccc3s2)cc1`: the Activity in the assay on Mus musculus [1] is recorded as 1.8 mg. For the same molecule, the values for the inhibition in vivo at 100 mg/kg in the assay with Mus musculus [3] and in the assay with Mus musculus [5] were 99.6% and 12.2%, respectively.
On to `Clc1ccc(OCCOc2nc3ccccc3s2)c(Cl)c1`, for which the Activity in the assay with Mus musculus [1] is given as 0.3 mg. The figures for the pIC50 in assay [2] and in assay [4] were 5.37 and 6.39, respectively. Moreover, in the assay filed under Homo sapiens, the Ratio IC50 is 10.4. The inhibition in vivo at 100 mg/kg with Mus musculus [3] stood at 68.6%; with Mus musculus [5], 85.4%.
`COc1ccc2c(c1)c(CC(=O)O)c(C)n2C(=O)c1ccc(Cl)cc1` [INDOMETHACIN]: the Activity with Mus musculus [1] came to 0.36 mg. Also, the inhibition in vivo at 100 mg/kg in the assay on Mus musculus [5] came out at 82.4%.
Take `Brc1cccc(COc2nc3ccccc3s2)c1`: the Activity with Mus musculus [1] is recorded as 0.46 mg. Further, the inhibition in vivo at 100 mg/kg with Mus musculus [3] turned out to be 51.9%; with Mus musculus [5] it was 77.6%.
On the same counts, the results for `Brc1ccc(COc2nc3ccccc3s2)cc1` are 0.45 mg, 51.9% and 78%.
With `Clc1ccccc1COc1nc2ccccc2s1`, in the assay with Mus musculus [1], the Activity was 1.75 mg. Moreover, in the assay with Mus musculus [3], the inhibition result is “inactive”. The inhibition in vivo at 100 mg/kg in the assay on Mus musculus [5] is 14.6%.
`Clc1ccc(OCCOc2nc3ccccc3s2)cc1`: in the assay on Mus musculus [1], the Activity is 0.69 mg. Also, the inhibition in vivo at 100 mg/kg is 68.6% with Mus musculus [3] and 66.3% in the assay with Mus musculus [5].
In the same order, the values of `Brc1ccccc1COc1nc2ccccc2s1` are 0.5 mg, 51.9% and 75.6%.
Consider `COc1ccc(COc2nc3ccccc3s2)cc1`, for which the Activity in the assay on Mus musculus [1] came out at 2 mg. Besides, the inhibition result in the assay with Mus musculus [3] was “inactive”. In addition, in the assay with Mus musculus [5], the inhibition in vivo at 100 mg/kg was found to be 2.43%.
Regarding `COc1cc(COc2nc3ccccc3s2)cc(OC)c1`, the Activity in the assay with Mus musculus [1] is listed as 1.14 mg. Also, the inhibition in vivo at 100 mg/kg with Mus musculus [3] was 51.9%; in the assay with Mus musculus [5], 44.4%.
Take `N#Cc1ccc(COc2nc3ccccc3s2)cc1`: the Activity with Mus musculus [1] was 1.79 mg. Besides, in the assay on Mus musculus [3], the inhibition entry is “inactive”. For the same molecule, in the assay with Mus musculus [5], the inhibition in vivo at 100 mg/kg was determined as 12.7%.
For `Cc1cc(C)cc(COc2nc3ccccc3s2)c1`, in the assay on Mus musculus [1], the Activity came out at 2.04 mg. Besides, the inhibition in vivo at 100 mg/kg amounted to 51.9% with Mus musculus [3] and 0.5% in the assay on Mus musculus [5].
For the molecule `O=C(c1ccc([N+](=O)[O-])cc1)c1nc2ccc(F)c(Nc3ccccc3[N+](=O)[O-])c2s1`, the inhibition in vivo at 100 mg/kg with Rattus norvegicus was 78%.
Take `Clc1cccc(COc2nc3ccccc3s2)c1`: in the assay on Mus musculus [1], the Activity is recorded as 0.41 mg. Moreover, the inhibition in vivo at 100 mg/kg was determined as 51.9% in the assay with Mus musculus [3] and 80% in the assay on Mus musculus [5].
On to `c1ccc(COc2nc3ccccc3s2)cc1`, for which the Activity in the assay with Mus musculus [1] is listed as 0.64 mg. The inhibition in vivo at 100 mg/kg was 51.9% with Mus musculus [3] and 68.8% in the assay on Mus musculus [5].
Consider `Fc1ccc(COc2nc3ccccc3s2)cc1`, for which, in the assay with Mus musculus [1], the Activity is given as 0.19 mg. Further, the negative-log IC50 (pIC50) is 5.21 in assay [2] and 6.43 in assay [4]. Also, the Ratio IC50 in the assay filed under Homo sapiens was found to be 16.8. Moreover, the inhibition in vivo at 100 mg/kg with Mus musculus [3] is 51.9%; in the assay on Mus musculus [5] it was 90.7%.
Take `Fc1ccc(OCCOc2nc3ccccc3s2)cc1`: in the assay with Mus musculus [1], the Activity is listed as 0.56 mg. For the same molecule, the inhibition in vivo at 100 mg/kg with Mus musculus [3] amounted to 99.9%; in the assay with Mus musculus [5] it was 72.7%.
In the case of `O=[N+]([O-])c1ccc(COc2nc3ccccc3s2)cc1`, the Activity with Mus musculus [1] worked out at 1.96 mg. Besides, the inhibition in vivo at 100 mg/kg is 97% with Mus musculus [3] and 4.39% with Mus musculus [5].
With `Brc1ccc(OCCOc2nc3ccccc3s2)c(Br)c1`, in the assay on Mus musculus [1], the Activity was 0.26 mg. The negative-log IC50 (pIC50) was 5.29 in assay [2] and 6.44 in assay [4]. The Ratio IC50 in the assay listed under Homo sapiens is 14.1. Besides, the inhibition in vivo at 100 mg/kg with Mus musculus [3] came to 68.6%; with Mus musculus [5] it was 87.3%.
